{"source": "patent US10450549B2", "about": "“Aryloxyphenoxypropionate tolerance in turfrgass species and use of AAD1 as a selectable marker” (Dow AgroSciences, LLC, priority 2004, dated 2019)", "key": {"[1]": {"target": "T1, AAD1 (v1) (Sphingobium herbicidovorans, UniProt Q8KSC8)", "T1 construct": "made in house; host or cells: E. coli BL-21 Star (DE3), plasmid pDAB3203", "T1 sequence (Q8KSC8 whole entry)": "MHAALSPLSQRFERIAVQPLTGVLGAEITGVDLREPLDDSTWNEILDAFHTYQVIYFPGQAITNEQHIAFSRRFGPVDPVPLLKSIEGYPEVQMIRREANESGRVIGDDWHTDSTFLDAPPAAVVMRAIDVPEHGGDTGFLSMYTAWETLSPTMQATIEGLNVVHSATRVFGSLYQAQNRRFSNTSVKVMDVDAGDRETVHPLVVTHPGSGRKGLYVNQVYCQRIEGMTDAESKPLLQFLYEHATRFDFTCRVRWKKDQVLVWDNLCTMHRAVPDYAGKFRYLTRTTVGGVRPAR", "experiment": "Colorimetric phenol detection assay of AAD1 (v1) activity (purified enzyme or E. coli extract)", "assay_type": "biochemical", "details": "for A510, AAD1 / A510, AAD1 (10x): substrate 1 mM; for A510, AAD1: 1 μg purified AAD1 (v1) per 0.16 ml assay; for A510, AAD1 (10x): 10 μg purified AAD1 (v1) per 0.16 ml assay; for activity of AAD1 (v1) E. coli extract on substrate: 0.5 mM substrate, 4 μl extract"}, "[2]": {"tested_on": "PAAD1.315.064 ARBTH", "experiment": "In vitro plate test of herbicide cross resistance: homozygous T4 AAD1 (v3) Arabidopsis", "assay_type": "in vivo, Arabidopsis thaliana", "details": "for root ratio / shoot ratio: resistant to sensitive biotype, >2 signifies resistance; for PAAD1.315.064 ARBTH root 150 / PAAD1.315.064 T3 ARBTH shoot 150: 7 days", "summary_of_the_method": "(§1)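 Surface-sterilised seeds sown in nutrient agar dosed with test compounds from DMSO stocks (final DMSO ≤1% v/v; DMSO-only control), grown 7 days at 25 °C under continuous light (75 μE m^−2 s^−1). Shoot growth reduction scored visually; root length measured (≥5 plants averaged) vs control. I50 calculated for root and shoot.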"}, "[3]": {"tested_on": "wt ARBTH", "experiment": "In vitro plate test of herbicide cross resistance: wild-type Arabidopsis", "assay_type": "in vivo, Arabidopsis thaliana", "details": "7 days", "summary_of_the_method": "as §1"}, "[4]": {"tested_on": "Arabidopsis thaliana var. Columbia", "experiment": "Arabidopsis plate test bioassay for herbicide degradation", "assay_type": "in vivo", "details": "for IC50: 168 h; for GR50 ratio: enzyme-expressing lysate vs blank vector, ≥ 2 = threshold for activity loss; for herbicidal activity after AAD1 (v1) treatment, Arabidopsis plate assay: unpurified recombinant AAD1 (v1) extract"}, "[5]": {"details": "Arabidopsis thaliana, read-out: GR50, Chemical + AAD1 v1"}, "[6]": {"details": "Escherichia coli, in Arabidopsis thaliana, cell lysate of E. coli pET vector without gene insert, read-out: GR50, Chemical + Blank Vector"}}, "note": "Like-named read-outs stand apart in the source and are kept apart here.", "data": [{"smiles": "C[C@@H](Oc1ccc(Oc2cnc3cc(Cl)ccc3n2)cc1)C(=O)O", "note": "[quizalofop]", "values": [{"measurement": "activity relative to the dichlorprop rate", "setting": "[1]; purified AAD1 (v1), 1 mM substrate", "result": 76, "unit": "%"}]}, {"smiles": "CC(Oc1ccc(Oc2ncc(C(F)(F)F)cc2Cl)cc1)C(=O)O", "note": "(centres unmarked) [haloxyfop]", "values": [{"measurement": "A510, AAD1", "setting": "[1]; Table 4", "result": 0.172}, {"measurement": "A510, AAD1 (10x)", "setting": "[1]; Table 4", "result": 1.63}]}, {"smiles": "Nc1c(Cl)c(F)nc(OCC(=O)O)c1Cl", "note": "[Fluroxypyr]", "values": [{"measurement": "root ratio", "setting": "[2]", "result": 1}, {"measurement": "shoot ratio", "setting": "[2]", "result": 0.5}, {"measurement": "resistance afforded by AAD1 (v3) in plate test", "setting": "[2]; root and shoot assessment", "result": "did not effectively protect"}, {"measurement": "PAAD1.315.064 ARBTH root 150", "setting": "[2]", "result": 0.2, "unit": "ppm"}, {"measurement": "PAAD1.315.064 T3 ARBTH shoot 150", "setting": "[2]", "result": 1, "unit": "ppm"}, {"measurement": "wt ARBTH root 150", "setting": "[3]", "result": 0.2, "unit": "ppm"}, {"measurement": "wt ARBTH shoot 150", "setting": "[3]", "result": 2, "unit": "ppm"}, {"measurement": "IC50", "setting": "[4]; [5]", "result": 1.82, "unit": "µM"}, {"measurement": "IC50", "setting": "[4]; Arabidopsis thaliana, root length, 7 days, read-out: GR50, Chemical alone", "result": 2.2, "unit": "µM"}, {"measurement": "IC50", "setting": "[4]; [6]", "result": 2.25, "unit": "µM"}, {"measurement": "GR50 ratio", "setting": "[4]", "result": "<1"}]}, {"smiles": "CC(Oc1ccc(Cl)cc1Cl)C(=O)O", "note": "(racemic) [(R,S)-dichlorprop, 2,4-dichlorophenoxypropionic acid]", "values": [{"measurement": "root ratio", "setting": "[2]", "result": 150}, {"measurement": "shoot ratio", "setting": "[2]", "result": 2.5}, {"measurement": "PAAD1.315.064 ARBTH root 150", "setting": "[2]", "result": 1.5, "unit": "ppm"}, {"measurement": "PAAD1.315.064 T3 ARBTH shoot 150", "setting": "[2]", "result": 5, "unit": "ppm"}, {"measurement": "wt ARBTH root 150", "setting": "[3]", "result": 0.01, "unit": "ppm"}, {"measurement": "wt ARBTH shoot 150", "setting": "[3]", "result": 2, "unit": "ppm"}, {"measurement": "activity of AAD1 (v1) E. coli extract on substrate", "setting": "[1]; 15 min", "result": "cleaved"}, {"measurement": "A510, AAD1", "setting": "[1]; Table 3, 15 min", "result": 0.566}, {"measurement": "A510, AAD1 (10x)", "setting": "[1]; Table 3, 15 min", "result": 2.594}, {"measurement": "IC50", "setting": "[4]; Arabidopsis thaliana, AAD1 (v1)-expressing lysate, nominal concentration, read-out: GR50, Chemical + AAD1 v1", "result": 1, "unit": "µM"}, {"measurement": "IC50", "setting": "[4]; [6]", "result": 0.03, "unit": "µM"}, {"measurement": "GR50 ratio", "setting": "[4]", "result": 33}, {"measurement": "herbicidal activity after AAD1 (v1) treatment, Arabidopsis plate assay", "setting": "[4]", "result": "effectively degraded"}]}, {"smiles": "O=C(O)COc1ccc(Cl)cc1Cl", "note": "[2,4-D, 2,4-dichlorophenoxyacetic acid]", "values": [{"measurement": "PAAD1.315.064 ARBTH root 150", "setting": "[2]", "result": 0.04, "unit": "ppm"}, {"measurement": "PAAD1.315.064 T3 ARBTH shoot 150", "setting": "[2]", "result": 10, "unit": "ppm"}, {"measurement": "wt ARBTH root 150", "setting": "[3]", "result": "<0.01", "unit": "ppm"}, {"measurement": "wt ARBTH shoot 150", "setting": "[3]", "result": 0.2, "unit": "ppm"}, {"measurement": "activity of AAD1 (v1) E. coli extract on substrate", "setting": "[1]; 15 min", "result": "cleaved"}, {"measurement": "Vmax (A510 units)", "setting": "[1]; AAD1 (v1) (pDAB3203), MOPS pH 6.75", "result": 0.11, "unit": "A510 units"}, {"measurement": "A510, AAD1", "setting": "[1]; Table 3, 15 min", "result": 0.034}, {"measurement": "A510, AAD1 (10x)", "setting": "[1]; Table 3, 15 min", "result": 0.383}, {"measurement": "A510", "setting": "[1]; Table 8, 1 mM, 27 μg crude recombinant AAD1 (v1) extract from E. coli", "result": 0.177}, {"measurement": "% 2,4-D", "setting": "[1]; Table 8, relative to 2,4-D, crude AAD1 (v1) extract", "result": 100, "unit": "%"}, {"measurement": "apparent Vmax, AAD1 (v1)", "setting": "[1]; partially purified enzyme", "result": 0.11, "unit": "A510 units"}, {"measurement": "kcat", "setting": "[1]; purified AAD1 (v1)", "result": 0.045, "unit": "s⁻¹"}, {"measurement": "Vmax ± SE", "setting": "[1]; purified AAD1 (v1), Michaelis-Menten fit", "result": "0.57 ± 0.00", "unit": "μmol min^−1 mg^−1 AAD1"}, {"measurement": "IC50", "setting": "[4]; [5]", "result": 0.267, "unit": "µM"}, {"measurement": "IC50", "setting": "[4]; Arabidopsis thaliana, read-out: GR50, Chemical alone", "result": 0.022, "unit": "µM"}, {"measurement": "IC50", "setting": "[4]; Escherichia coli, in Arabidopsis thaliana, read-out: GR50, Chemical + Blank Vector", "result": 0.017, "unit": "µM"}, {"measurement": "herbicidal activity after AAD1 (v1) treatment, Arabidopsis plate assay", "setting": "[4]", "result": "almost complete loss"}]}]}
